Data reported in US10738101B2, “Method for selecting odor-controlling substance” (Kao Corporation, priority 2015, dated 2020).

Tests used:
OR10G4 = target: T1, OR10G4 (Homo sapiens, UniProt Q8NGN3); experiment: Luciferase reporter gene assay, OR10G4-expressing HEK293 cells; type: cell-based; details: FIG. 5A, 5C
T1 construct: expressed in transfected cells; host or cells: HEK293
T1 sequence (Q8NGN3 1-311): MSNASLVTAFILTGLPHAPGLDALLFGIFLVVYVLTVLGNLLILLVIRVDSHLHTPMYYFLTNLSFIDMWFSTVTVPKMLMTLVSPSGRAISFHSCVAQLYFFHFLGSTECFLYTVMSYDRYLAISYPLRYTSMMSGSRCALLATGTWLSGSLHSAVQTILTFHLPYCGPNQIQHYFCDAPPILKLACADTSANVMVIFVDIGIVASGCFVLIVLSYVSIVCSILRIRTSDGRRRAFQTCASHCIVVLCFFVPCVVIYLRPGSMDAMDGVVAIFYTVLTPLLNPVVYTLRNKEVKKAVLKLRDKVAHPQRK
Source text: (§1) On the basis of sequence information registered in GenBank, genes respectively encoding 370 human olfactory receptors shown in Tables 1-1 and 1-2 and genes respectively encoding the human olfactory receptors OR5AN1, OR10G4 and OR9Q2 (respectively set forth in SEQ ID NOS: 1, 3 and 5) were cloned. Each of the genes was cloned by the PCR using human genomic DNA person (G1521: Promega) as a template. Each gene amplified by the PCR was incorporated into a pENTR vector (Invitrogen) in accordance with the instruction, and was recombined to NotI and AscI sites produced downstream from a Flag-Rho tag sequence on a pME18S vector by using NotI and AscI sites present on the pENTR vector.
(§2) In 1) of Example 1, HEK293 cells on which the 370 human olfactory receptors were respectively expressed were produced. A reaction solution having a composition shown in Table 2 was prepared and allowed to stand still in a clean bench for 15 minutes, and the resultant was added by 4.4 μL per well in a 384-well plate (BioCoat). Subsequently, the HEK293 cells (20×10^4 cells/cm^2) were seeded by 40 μL per well, and the resultant was cultured for 24 hours in an incubator kept at 37° C. and 5% CO2.
(§3) In 2) of Example 1 and Examples 2 and 3, HEK293 cells in which the human olfactory receptor OR5AN1, OR10G4, OR9Q2 or OR1A1 was expressed were produced. A reaction solution having a composition shown in Table 3 was prepared and allowed to stand still in a clean bench for 15 minutes, and the resultant was added by 10 μL per well in a 96-well plate (BioCoat). Subsequently, the HEK293 cells (3×10^5 cells/cm^2) were seeded by 90 μL per well, and the resultant was cultured for 24 hours in an incubator kept at 37° C. and 5% CO2. Cells obtained under conditions for not expressing the olfactory receptor (Mock) were also prepared to be used as a control, and were used similarly in an experiment.
The olfactory receptor expressed on the HEK293 cells increases the intracellular cAMP amount by activating adenylate cyclase in conjugation with intracellular Gαs. In the measurement of odor response in this study, luciferase reporter gene assay for monitoring the increase of the intracellular cAMP amount as a luminescence value derived from a firefly luciferase gene (fluc2P-CRE-hygro) was employed. Besides, a fused Renilla luciferase (hRluc-CMV) gene was simultaneously transferred downstream of the CMV promoter, so as to be used as an internal standard for correcting the gene transfer efficiency or an error in the number of cells. […] Under each of various stimulation conditions, a value fLuc/hRluc obtained by dividing a firefly luciferase-derived luminescence value by a Renilla luciferase-derived luminescence value was calculated. […] A dose-response curve was analyzed using Graph Pad Prism. […]

OR9Q2 = target: T2, OR9Q2 (Homo sapiens, UniProt Q8NGE9); experiment: Luciferase reporter gene assay, OR9Q2-expressing HEK293 cells; type: cell-based; details: FIG. 2, 5B, 5C
T2 construct: expressed in transfected cells; host or cells: HEK293
T2 sequence (Q8NGE9 1-314): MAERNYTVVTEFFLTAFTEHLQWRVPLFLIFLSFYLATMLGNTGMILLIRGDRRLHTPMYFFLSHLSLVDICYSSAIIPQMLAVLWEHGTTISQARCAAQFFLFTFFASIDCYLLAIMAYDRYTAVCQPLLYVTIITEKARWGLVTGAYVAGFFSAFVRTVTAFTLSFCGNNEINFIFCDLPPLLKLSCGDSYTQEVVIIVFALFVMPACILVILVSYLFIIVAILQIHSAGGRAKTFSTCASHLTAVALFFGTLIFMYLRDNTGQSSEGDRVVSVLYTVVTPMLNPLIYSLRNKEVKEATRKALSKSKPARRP
Source text: as §1, §2, §3
(§4) The olfactory receptor expressed on the HEK293 cells increases the intracellular cAMP amount by activating adenylate cyclase in conjugation with intracellular Gαs. In the measurement of odor response in this study, luciferase reporter gene assay for monitoring the increase of the intracellular cAMP amount as a luminescence value derived from a firefly luciferase gene (fluc2P-CRE-hygro) was employed. Besides, a fused Renilla luciferase (hRluc-CMV) gene was simultaneously transferred downstream of the CMV promoter, so as to be used as an internal standard for correcting the gene transfer efficiency or an error in the number of cells. For measuring the activity of the luciferase, Dual-Glo(™) Luciferase Assay System (Promega) was used, and the measurement was performed in accordance with the operation instruction of the product. Under each of various stimulation conditions, a value fLuc/hRluc obtained by dividing a firefly luciferase-derived luminescence value by a Renilla luciferase-derived luminescence value was calculated. A value obtained by dividing a value fLuc/hRluc induced by stimulation with an odorous substance by a value fLuc/hRluc of a cell not stimulated with the odorous substance was obtained as fold increase, which was used as an index of the response intensity. A dose-response curve was analyzed using Graph Pad Prism.
(§5) The medium was removed from each of the cultures of the olfactory receptor expressing cells produced according to Reference Example 1, and an odorous substance (muscone, guaiacol or p-cresol) was added thereto. A DMEM medium (Nacalai) containing muscone or guaiacol was added to a 384-well plate containing the culture by 30 μL per well (to a final concentration of muscone of 100 μM and of guaiacol of 1 mM). Alternatively, a CD293 medium (Invitrogen) containing p-cresol was added to a 96-well plate containing the culture by 75 μL per well (to a final concentration of 1 mM). […]

odor of p-cresyl acetate = experiment: Sensory test of cross-adaptation, target odor p-cresyl acetate; type: in vivo, human; details: panelists
OR5AN1 = target: T3, OR5AN1 (Homo sapiens, UniProt Q8NGI8); experiment: Luciferase reporter gene assay, OR5AN1-expressing HEK293 cells; type: cell-based
T3 construct: expressed in transfected cells; host or cells: HEK293
T3 sequence (Q8NGI8 1-311): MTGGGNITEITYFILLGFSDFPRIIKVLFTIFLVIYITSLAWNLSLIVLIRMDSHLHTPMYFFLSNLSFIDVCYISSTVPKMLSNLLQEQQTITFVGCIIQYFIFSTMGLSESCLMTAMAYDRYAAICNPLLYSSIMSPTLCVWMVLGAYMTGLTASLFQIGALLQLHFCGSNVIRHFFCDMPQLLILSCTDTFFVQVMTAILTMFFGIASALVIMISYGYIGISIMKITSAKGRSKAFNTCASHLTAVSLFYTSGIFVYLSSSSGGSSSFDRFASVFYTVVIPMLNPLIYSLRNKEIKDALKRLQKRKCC
Source text: as §1, §2, §3, §4, §5

C[C@@H]1CCCCCCCCCCCCC(=O)C1 [muscone, (R)-3-methyl-1-cyclopentadecanone]
responsiveness of OR10G4 (fold increase) (OR10G4): do not have responsiveness | responsiveness of OR9Q2 (fold increase) (OR9Q2): do not have responsiveness | cross-adaptation of p-cresyl acetate odor induced by test substance (odor of p-cresyl acetate): did not induce the cross-adaptation | activation of OR5AN1 response (fold increase) (OR5AN1; 0.3 μM to 100 μM, vs Mock cells, FIG. 3): activating the response | responsiveness of OR5AN1 among 370 olfactory receptors (response intensity, fold increase) (OR5AN1; screen of 370 human olfactory receptors, muscone 100 μM, FIG. 1): highest responsiveness
